According to paper PMC7714071, “Interaction of amyloid beta with humanin and acetylcholinesterase is modulated by ATP” (FEBS Open Bio, 2020):

Tests used:
AChE = experiment: ELISA, binding of biotinylated-Aβ42 to immobilised AChE; design: species or system human
Excerpt: Most of the material used was purchased as we previously reported. Nitrocellulose membranes, PBS, ATP, recombinant human AChE (C1682, UniProt accession ID: C9JD78), streptavidin‐conjugated horseradish peroxidase (HRP) conjugate, Ponceau S solution, PMSF, and HS sodium salt from bovine kidney were purchased from Sigma‐Aldrich (St. Louis, MO, USA). Mouse IgG isotype control (mIgG), ultra 3,3′,5,5′‐tetramethylbenzidine (TMB)‐ELISA substrate solution, Halt Protease and Phosphatase Inhibitor Cocktail, HN polyclonal antibody (rabbit, PA1‐41610), and Nunc MaxiSorpTM 96‐well flat bottom plates were from Thermo Fisher (Waltham, MA, USA). […]
ELISAs were carried out as we previously reported. […] TBST was then used to wash the wells 4× before proceeding in one of two ways: (a) biotinylated samples were analyzed by adding 100 µL streptavidin–HRP conjugate in TBST (1 : 2500 dilution) to the samples followed by incubation for 3 h at RT on a shaker, or (b) samples without biotin were analyzed by adding 100 µL TBST containing the primary antibody as per the manufacturer's recommendation, incubating for 3 h at RT on a shaker, followed by washing the wells 4× with TBST. […] The reaction was stopped with 100 µL 2 M H2SO4 after incubating at RT for 0.5–15 min, resulting in a yellow color change, measured by absorbance at 450 nm. […] Statistical analysis was determined by the […]

Aβ = details: cited from earlier work
Excerpt: Soluble oligomers of proteins implicated in different diseases are primarily thought to be the main toxic form as opposed to the larger fibrillar assemblies. Aβ regions containing Tyr and Ser (H6DSGY10 and G25SNKG29) (Fig. 1) along with post‐translational modifications of these regions, have been implicated in misfolding, oligomerization, or fibril formation of Aβ [5, 10, 11, 16, 41]. […] In addition to ATP, the glycosaminoglycan, heparan sulfate (HS), has been previously reported to i ... || Access to the central domain of Aβ (residues 17–24) flanked by Lys‐16 and Lys‐28, known to be a critical structural element in fibrillar Aβ aggregates, might be regulated by binding of AChE and HN to their overlapping binding sites on Aβ. […] Moreover, we s ...

A549 cells = details: cited from earlier work
Description: Since addition of ATP appears to increase binding of HN to Aβ, and conversely, decreases the interaction of Aβ with AChE (Figs 3, 4, 5, 6), we tested the effect of added ATP on A549 and H1299 cell viability (Fig. 7). Exogenously added ATP at either 100 µM or 1 mM had no effect on viability of either A549 (Fig. 7A) or H1299 cells (Fig. 7B).

With Nc1ncnc2c1ncn2[C@@H]1O[C@H](COP(=O)(O)OP(=O)(O)OP(=O)(O)O)[C@@H](O)[C@H]1O [ATP, Adenosine triphosphate] as the compound, how does the “effect of ATP on affinity of AChE to Aβ42” value (AChE; 200 μM ATP, 30 min preincubation RT, pH 7.5, 10 mM MgCl2, three experiments in triplicate, Fig. 3B) read?
Its value is “reduced the affinity”.

And the “effect on misfolding of Aβ” value (Aβ; physiological intracellular concentrations, enhanced by magnesium)?
Its value is “reduced misfolding of Aβ”.

What about the “effect of ATP on A549 cell viability” value (A549 cells; 100 μM or 1 mM ATP) of the same compound?
Its value is “no effect”.

For heparan sulfate [HS], which “effect of HS on binding of Aβ42 to AChE” value (AChE; AChE 10 nM on wells, biotinylated-Aβ 1 μM, increasing HS, three independent assays, Fig. 2C) is on record?
Its value is “No effects”.

And the “effect of HS on Aβ aggregation” value (Aβ)?
Its value is “increasing their aggregation”.

Which results are given for Humanin [HN]?
Aβ aggregation in presence of both HN and AChE (Aβ; to levels close to HN alone): greatly diminished; cell viability upon ID of HN (A549 cells; HN immunodepleted from A549 conditioned media): diminished cell viability; apoptosis upon ID of HN (A549 cells; HN-ID A549 media): increased apoptosis
